Measured values published in PubChem BioAssay AID248 (DTP/NCI, 2004).
Values joined by “and” are separate entries in the source; they are usually repeats but may differ in a detail not shown here. Equal entries are not always repeated. Inconclusive results and toxic doses are left out. Rule as the data show it: active = T/C of 150% or more; inactive = T/C below 125%.

System: L1210 leukemia ip in BDF1 mice, survival T/C
Assay: NCI In Vivo Anticancer Drug Screen. Data for tumor model L1210 Leukemia (intraperitoneal) in B6D2F1 (BDF1) mice
Details: endpoint: mean survival time, higher = longer survival
Method in brief: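 Value reflects the ratio of survival in compound-treated mice to survival in vehicle-treated controls, with both groups carrying the same transplanted tumor.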

[1] = dose: 100.0 mg/kg/injection, schedule: Q01DX009 (ip), vehicle: saline with Tween-80
[2] = dose: 200.0 mg/kg/injection, schedule: Q01DX009 (ip), vehicle: saline with Tween-80
[3] = dose: 100.0 mg/kg/injection, schedule: Q01DX009 (ip), vehicle: Klucel (hydroxypropylcellulose) (HPC)
[4] = dose: 100.0 mg/kg/injection, schedule: Q04DX003 (ip), vehicle: Klucel (hydroxypropylcellulose) (HPC)
[5] = dose: 200.0 mg/kg/injection, schedule: Q01DX009 (ip), vehicle: Klucel (hydroxypropylcellulose) (HPC)
[6] = dose: 400.0 mg/kg/injection, schedule: Q01DX009 (ip), vehicle: Klucel (hydroxypropylcellulose) (HPC)
[7] = dose: 25.0 mg/kg/injection, schedule: Q01DX009 (ip), vehicle: Klucel (hydroxypropylcellulose) (HPC)
[8] = dose: 50.0 mg/kg/injection, schedule: Q01DX009 (ip), vehicle: Klucel (hydroxypropylcellulose) (HPC)
[9] = dose: 100.0 mg/kg/injection, schedule: Q04DX002 (ip), vehicle: Klucel (hydroxypropylcellulose) (HPC)
[10] = dose: 100.0 mg/kg/injection, schedule: Q04DX002 (ip), vehicle: saline with Tween-80
[11] = dose: 200.0 mg/kg/injection, schedule: Q04DX002 (ip), vehicle: saline with Tween-80
[12] = dose: 400.0 mg/kg/injection, schedule: Q04DX002 (ip), vehicle: saline with Tween-80
[13] = dose: 100.0 mg/kg/injection, schedule: Q04DX003 (ip), vehicle: saline with Tween-80
[14] = dose: 200.0 mg/kg/injection, schedule: Q04DX003 (ip), vehicle: saline with Tween-80
[15] = dose: 400.0 mg/kg/injection, schedule: Q01DX009 (ip), vehicle: saline with Tween-80
[16] = dose: 400.0 mg/kg/injection, schedule: Q04DX003 (ip), vehicle: saline with Tween-80
[17] = dose: 100.0 mg/kg/injection, schedule: Q01DX001 (ip), vehicle: saline
[18] = dose: 200.0 mg/kg/injection, schedule: Q01DX001 (ip), vehicle: saline
[19] = dose: 400.0 mg/kg/injection, schedule: Q01DX001 (ip), vehicle: saline
[20] = dose: 100.0 mg/kg/injection, schedule: Q04DX003 (ip), vehicle: saline
[21] = dose: 200.0 mg/kg/injection, schedule: Q04DX003 (ip), vehicle: saline
[22] = dose: 400.0 mg/kg/injection, schedule: Q04DX003 (ip), vehicle: saline
[23] = dose: 200.0 mg/kg/injection, schedule: Q04DX002 (ip), vehicle: Klucel (hydroxypropylcellulose) (HPC)
[24] = dose: 400.0 mg/kg/injection, schedule: Q04DX002 (ip), vehicle: Klucel (hydroxypropylcellulose) (HPC)

Measured: T/C

CCCCCCCCCC(=O)c1nc(N)nc(N)n1
inactive: dose: 50.0 mg/kg/injection, schedule: Q01DX009 (ip), vehicle: saline with Tween-80 105 % of control | [1] 105 % of control | [2] 97 % of control

CC(=O)c1ccccc1I
inactive: [3] 94 % of control | [4] 100 % of control | [5] 97 % of control | dose: 200.0 mg/kg/injection, schedule: Q04DX003 (ip), vehicle: Klucel (hydroxypropylcellulose) (HPC) 94 % of control | [6] 103 % of control | dose: 400.0 mg/kg/injection, schedule: Q04DX003 (ip), vehicle: Klucel (hydroxypropylcellulose) (HPC) 95 % of control

O=[N+]([O-])c1cccc(C=Nc2cccc3ccccc23)c1
inactive: [3] 96 % of control | [5] 98 % of control | [6] 88 % of control

CCCCCCCCCCCCOP(=S)(S)OCCCCCCCCCCCC (tested in a mixture with another compound)
inactive: [7] 94 % of control | dose: 25.0 mg/kg/injection, schedule: Q04DX002 (ip), vehicle: Klucel (hydroxypropylcellulose) (HPC) 87 % of control | [8] 91 % of control | dose: 50.0 mg/kg/injection, schedule: Q04DX002 (ip), vehicle: Klucel (hydroxypropylcellulose) (HPC) 90 % of control | [9] 99 % of control and 100 % of control

Cn1c2ccccc2c2nnc(NCCCO)nc21
inactive: [10] 86 % of control | [11] 104 % of control | [12] 97 % of control

CC(=O)CC(=O)C(F)(F)F.CC(=O)CC(=O)C(F)(F)F.CC(=O)CC(=O)C(F)(F)F.[Rh]
inactive: [1] 97 % of control | [13] 97 % of control | [2] 100 % of control | [14] 90 % of control | [15] 96 % of control | [16] 92 % of control

OC(c1cc(C(F)(F)F)nc2c(F)cccc12)C1CCCCN1 (configuration not stated)
inactive: [13] 102 % of control | [14] 105 % of control | [16] 96 % of control

Cc1ccc(Nc2cc(Cl)nc(N)n2)cc1Cl
inactive: dose: 100.0 mg/kg/injection, schedule: Q01DX Z (ip), vehicle: methylcellulose (MC) 97 % of control | dose: 200.0 mg/kg/injection, schedule: Q01DX Z (ip), vehicle: methylcellulose (MC) 100 % of control

O=C(O)C1C(C(=O)Nc2cc(C(F)(F)F)ccc2Cl)C2(Cl)C(Cl)=C(Cl)C1(Cl)C2(Cl)Cl (configuration not stated)
inactive: [7] 97 % of control | [8] 95 % of control | dose: 50.0 mg/kg/injection, schedule: Q04DX003 (ip), vehicle: Klucel (hydroxypropylcellulose) (HPC) 95 % of control | [4] 93 % of control and 91 % of control

C1CCN(CCCCN2CCCCC2)CC1
inactive: [17] 96 % of control | [18] 104 % of control | [19] 108 % of control

O=[N+]([O-])CC1(O)CCCCC1
inactive: [7] 97 % of control | [8] 98 % of control

O=C(/C(=C/c1ccccc1)CN1CCOCC1)c1ccccc1
inactive: [4] 96 % of control

O=C1NC2/C=C/CCCCC12 (configuration not stated)
inactive: dose: 100.0 mg/kg/injection, schedule: Q04DX003 (ip), vehicle: other 95 % of control | dose: 200.0 mg/kg/injection, schedule: Q04DX003 (ip), vehicle: other 101 % of control | dose: 400.0 mg/kg/injection, schedule: Q04DX003 (ip), vehicle: other 92 % of control

OCc1cc2ccccc2[nH]1
inactive: [1] 100 % of control | [13] 100 % of control | [2] 100 % of control | [14] 96 % of control | [15] 101 % of control | [16] 100 % of control

O=S(=O)(/C=C\c1ccccc1)N1CCCc2ccccc21
inactive: [17] 106 % of control | [20] 98 % of control | [18] 98 % of control | [21] 102 % of control | [19] 101 % of control | [22] 98 % of control

S=C(Nc1ccccc1)Nc1ccccc1Cl
inactive: [9] 100 % of control | [23] 100 % of control | [24] 95 % of control

O=C(Nc1ccc(Cl)cc1)Nc1cccc2nsnc12
inactive: [10] 97 % of control | [11] 93 % of control | [12] 90 % of control

CN(C)C(=O)ON=C1c2ccccc2-c2ccccc21
inactive: [17] 103 % of control | [18] 97 % of control | [19] 103 % of control

Cn1cccc1/C=N/NC(N)=O
inactive: [9] 104 % of control | [23] 104 % of control | [24] 98 % of control

Clc1ccc(NC(Nc2ccc(Cl)cc2)C(Cl)(Cl)Cl)cc1
inactive: dose: 50.0 mg/kg/injection, schedule: Q01DX001 (ip), vehicle: Klucel (hydroxypropylcellulose) (HPC) 93 % of control | dose: 100.0 mg/kg/injection, schedule: Q01DX001 (ip), vehicle: Klucel (hydroxypropylcellulose) (HPC) 93 % of control | dose: 200.0 mg/kg/injection, schedule: Q01DX001 (ip), vehicle: Klucel (hydroxypropylcellulose) (HPC) 90 % of control

CC(=O)N1CCC(CC[P+](c2ccccc2)(c2ccccc2)c2ccccc2)CC1
inactive: dose: 12.5 mg/kg/injection, schedule: Q04DX003 (ip), vehicle: saline 101 % of control | dose: 25.0 mg/kg/injection, schedule: Q04DX003 (ip), vehicle: saline 96 % of control | dose: 50.0 mg/kg/injection, schedule: Q04DX003 (ip), vehicle: saline 93 % of control

CC(=O)/C=C/c1ccc([N+](=O)[O-])cc1
inactive: dose: 100.0 mg/kg/injection, schedule: Q04DX003 (ip), vehicle: saline sonified 95 % of control | dose: 200.0 mg/kg/injection, schedule: Q04DX003 (ip), vehicle: saline sonified 89 % of control | dose: 400.0 mg/kg/injection, schedule: Q04DX003 (ip), vehicle: saline sonified 92 % of control

Cc1no[n+]([O-])c1C(=O)NN
inactive: [9] 106 % of control | [23] 91 % of control | [24] 95 % of control

Cc1cccc(N2CCC3(CC2)C(=O)NC(=O)NC3=O)c1
inactive: [17] 94 % of control | [18] 97 % of control | [19] 100 % of control

NC(=O)c1cc(Cl)cc(N)c1Cl
inactive: dose: 100.0 mg/kg/injection, schedule: Q01DX001 (ip), vehicle: saline with Tween-80 107 % of control | dose: 200.0 mg/kg/injection, schedule: Q01DX001 (ip), vehicle: saline with Tween-80 104 % of control | dose: 400.0 mg/kg/injection, schedule: Q01DX001 (ip), vehicle: saline with Tween-80 117 % of control

O=C(Nc1ccc(Cl)cc1Cl)c1cc(Cl)cc(Cl)c1Br
inactive: [13] 101 % of control | [14] 92 % of control | [16] 92 % of control

CC(=O)c1ccncc1
inactive: dose: 50.0 mg/kg/injection, schedule: Q01DX001 (ip), vehicle: saline 94 % of control | [17] 89 % of control | [18] 94 % of control | [19] 94 % of control

CCOC(=O)N1CCCCC1
inactive: dose: 50.0 mg/kg/injection, schedule: Q01DX001 (ip), vehicle: carboxymethylcellulose (CMC) 95 % of control | dose: 100.0 mg/kg/injection, schedule: Q01DX001 (ip), vehicle: carboxymethylcellulose (CMC) 95 % of control | dose: 200.0 mg/kg/injection, schedule: Q01DX001 (ip), vehicle: carboxymethylcellulose (CMC) 101 % of control and 93 % of control | dose: 400.0 mg/kg/injection, schedule: Q01DX001 (ip), vehicle: carboxymethylcellulose (CMC) 104 % of control and 90 % of control

NC(COC(c1ccccc1)(c1ccccc1)c1ccccc1)C(=O)O (configuration not stated)
inactive: dose: 25.0 mg/kg/injection, schedule: Q01DX009 (ip), vehicle: other 100 % of control | dose: 200.0 mg/kg/injection, schedule: Q01DX009 (ip), vehicle: other 98 % of control

CN1CCCCC1C(O)CO (configuration not stated)
inactive: [20] 103 % of control | [21] 102 % of control | [22] 100 % of control
